According to publication PMC6368365, “Didehydro-Cortistatin A Inhibits HIV-1 by Specifically Binding to the Unstructured Basic Region of Tat” (mBio, 2019):

What was measured:
Hexim-1 = molecular target: T1, Hexim-1 (Homo sapiens, UniProt O94992); assay: Confocal immunofluorescence of Hexim-1 subcellular localization; assay type: cell-based; settings: HeLa-CD4-LTR-Luc cells
T1 construct: endogenous in cells; host or cells: HeLa-CD4-LTR-LacZ (RNA immunoprecipitation); HeLa-CD4-LTR-Luc (immunofluorescence)
T1 sequence (O94992 whole entry): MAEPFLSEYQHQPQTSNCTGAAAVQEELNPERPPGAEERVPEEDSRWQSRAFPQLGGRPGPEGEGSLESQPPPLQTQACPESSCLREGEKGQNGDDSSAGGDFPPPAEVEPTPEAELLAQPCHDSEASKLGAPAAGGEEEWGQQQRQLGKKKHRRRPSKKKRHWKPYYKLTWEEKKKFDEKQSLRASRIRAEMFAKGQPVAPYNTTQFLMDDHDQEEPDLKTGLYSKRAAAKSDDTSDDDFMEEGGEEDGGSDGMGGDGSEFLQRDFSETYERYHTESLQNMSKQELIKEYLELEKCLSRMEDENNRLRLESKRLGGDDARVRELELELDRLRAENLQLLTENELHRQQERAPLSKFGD
Excerpt: (A) Sequence of the basic domains of HIV Tat HXB3, HIV Rev Bru and intracellular Hexim-1. […] Shown is confocal microscopy analysis of the subcellular localization of transfected FLAG-Tat or FLAG-Rev in the presence of DMSO or dCA in HeLa-CD4-LTR-Luc cells. Proteins were recognized with anti-FLAG and Alexa Fluor 568-tagged anti-IgG. Magnification 60×. Data are representative of n = 2 independent experiments. (C) Quantification of the nucleolar fluorescence of panel B using ImageJ. Data are the mean ± SEM from 3 to 4 different cells. […] HeLa-CD4-LTR-LacZ cells were infected with strain NL4-3 for 24 hours. The next day, compounds (dCA, 10 nM; KPT, 400 nM; and SCM, 10 nM) were added for 24 hours. Total, nuclear, and cytoplasmic mRNAs were extracted, and viral messages were determined by qRT-PCR. GAPDH was used for normalization. Data are the mean ± SD from n = 5 independent experiments. […] (G) Quantification of nuclear fluorescence of panel F using ImageJ. […] Statistical significance was determined using one-way ANOVA with post hoc Tukey’s test. ns, not significant; ***, P < 0.0001; **, P < 0.001.
Hexim-1 directly binds to cyclin T1 and is responsible for the inactivation of the kinase activity of P-TEFb ([35], [36]). […] Intracellular Hexim-1 was immunoprecipitated, and 7SK snRNP bound to Hexim-1 was extracted, reverse transcribed, and quantified by qRT-PCR as previously described ([42]) (Fig. 3E). […]

HIV Tat HXB3 = molecular target: T2, HIV Tat HXB3 (Human immunodeficiency virus type 1 group M subtype B, UniProt P69697); assay: Isothermal titration calorimetry of dCA binding to Tat; parameters: species or system HIV-1
T2 construct: pTatC6H-1 (NIH AIDS Reagent Program) plasmid encoding C-terminal 6xHistidine Tat1-86 (HXB3, subtype B); made in house; host or cells: E. coli BL21 (plasmid pTatC6H-1, NIH AIDS Reagent Program)
T2 sequence (P69697 whole entry): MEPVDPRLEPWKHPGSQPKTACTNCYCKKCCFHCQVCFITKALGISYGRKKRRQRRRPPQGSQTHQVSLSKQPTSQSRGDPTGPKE
Excerpt: Next, we studied the direct interaction of Tat with dCA using ITC. After gradual titration of Tat with dCA in the ITC cell, the integrated heat data of the dCA-Tat interaction were collected (Fig. 1G). This ITC titration curve fitted well with a single-site binding process with a nonlinear least-squares regression, allowing the determination of the association constant (Ka) and entropy (ΔS) and enthalpy (ΔH) changes, as well as the average number of binding sites (N). We determined a 1:1 binding stoichiometry with a Ka of ∼(9.39 ± 1.7) × 10^6 M^−1 (dissociation constant [Kd] = 100 nM). Moreover, dCA binds to Tat at 25°C with a negative (favorable) enthalpy of −3.5 ± 0.1 kcal mol^−1 and positive (favorable) entropy of +20.0 ± 0.5 cal mol^−1 K^−1. The favorable values of ΔH and ΔS are consistent with the characteristics of a combination of van der Waals, hydrophobic, and electrostatic interactions in the binding process. The difference between Tat/dCA affinity (ITC, 100 nM) and dCA inhibitory activity in cell-based assays (0.6 to 2 nM) (Table 2) ([10]) could be the result of the nature of the Tat-TAR feedback loop that amplifies activity in vivo; especially since the amount of Tat in vivo after infection is very low ([24]).
A detailed protocol for ITC is provided in Text S1.
Isothermal titration calorimetry. The measurements were conducted at 25 °C on a Microcal VP-ITC (Microcal, Inc.; Northampton MA). Titrations of HIV Tat HXB3 and HIV-1 TAR with dCA (or peptide, ^46SYGRKKRRQRRRPPQ^60) were done by injecting 250 μL into an isothermal sample chamber containing 1.5 mL HIV Tat HXB3 or HIV-1 TAR solution that was 10 μM in strand. Each experiment of this type was accompanied by the corresponding control experiment in which peptide or dCA injected into a solution of buffer alone. The duration of each injection was 8 s and the delay between the injections was 300 s and 180 s, the initial delay prior to the first injection was 300 s. Each injection generated a heat burst curve (microcalories/second vs. seconds) and the area under each curve was determined by integration [using the origin version 7.0 software (Microcal, Inc.; Northampton, MA)] to obtain the measure of the heat associated with that injection.

Question: Which results are given for `CN(C)C1CC23CCC4(O2)C(=CCC2(C)C(c5ccc6ccncc6c5)=CCC24)C=C3C(O)C1O` (centres unmarked) [dCA, didehydro-cortistatin A]?
Answer: Hexim-1 nuclear localization (Hexim-1): did not have any effect; Kd (HIV Tat HXB3): 0.1 µM; enthalpy (ΔH) (HIV Tat HXB3; ITC, 25°C): -3.5 ± 0.1 kcal/mol; entropy (ΔS) (HIV Tat HXB3; ITC, 25°C): +20.0 ± 0.5 cal mol^−1 K^−1; association constant (Ka) (HIV Tat HXB3; ITC, 25°C, single-site fit): (9.39 ± 1.7) × 10^6 M^−1
